Measurements reported in patent US11643417B2, “Tetrahydrobenzofurodiazepinone compound and pharmaceutical use thereof” (priority 2020, dated 2023).

The compounds below were run against human Pim-1 (Homo sapiens (Human), UniProt P11309) (assay: biochemical). Conditions: Ki converted from IC50; purified human Pim-1, Pim2tide substrate, ADP-Glo; read-out: hPim1 Ki.
human Pim-1, sequence (P11309 whole entry): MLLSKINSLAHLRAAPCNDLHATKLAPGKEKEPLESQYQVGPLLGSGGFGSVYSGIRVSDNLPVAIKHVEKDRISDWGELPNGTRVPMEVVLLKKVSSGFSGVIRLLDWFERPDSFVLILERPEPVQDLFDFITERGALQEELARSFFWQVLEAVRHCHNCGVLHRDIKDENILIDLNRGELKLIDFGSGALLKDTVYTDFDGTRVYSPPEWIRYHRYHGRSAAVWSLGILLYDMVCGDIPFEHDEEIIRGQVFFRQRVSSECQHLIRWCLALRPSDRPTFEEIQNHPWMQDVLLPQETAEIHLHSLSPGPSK
Assay type: biochemical
Method: The human Pim-1 inhibitory activity of the test compounds was evaluated as follows.
(1) Purification of Human Pim-1
DNA fragment in which a His-Tag sequence and a translation termination sequence are added to the 3′-end of human Pim-1 translation sequence was amplified by PCR (Polymerase Chain Reaction), using human Pim-1 gene-inserted plasmid DNA (Kazusa DNA Laboratory, model number FXC11400) as a template. The amplified DNA fragment was fused with pGEx-6P-1 (GE Healthcare Japan, model number 27-4597-1) digested with BamHI and EcoRI using In-Fusion HD Cloning Kit (Takara Bio, model number 639649). […] The base sequence of Pim-1 cloned into vector was determined by Dye Terminator method using BigDye Terminator v3.1 Cycle Sequencing Kit (Applied Biosystems, model number 4337456). […] Escherichia coli BL21 (DE3) (Merck KGaA, model number 69449-4) transformed with human Pim-1-expressed plasmid DNA was cultured in 2×YT medium (Becton Dickinson, model number 2404020) at 30° C., until the optical concentration at 620 nm (OD620) reached 0.6, and then cultured overnight at 20° C. in the presence of 0.5 mmol/L isopropyl b-D-1-thiogalactopyranoside. After the completion of so the culture, the cells were collected and suspended in Homogenate Buffer (50 mmol/L Tris-HCl (pH 7.5), 500 mmol/L NaCl, 1% Tween20, complete, EDTA-free (Roche, model number 1873580)), and the suspended cells were lysed by passing through a microfluidizer M-110H (Mizuho Kogyo Co., Ltd.). The lysate was centrifuged at 10,100×g for 10 minutes, 4° C., and the supernatant was filtered through MILLEX-HV Filter (0.45 μm) (Millipore, SLHV033RS) to remove the cell residues. The filtrate was loaded onto complete His-Tag Purification Resin (Roche Diagnostics, model number 05 893 682 0.01). The column was washed with Equilibration Buffer-1 (50 mmol/L Tris-HCl (pH 7.5), 500 mmol/L NaCl, 1% Tween 20) containing 5 mmol/L Imidazole, followed by Equilibration Buffer-1 containing 50 mmol/L Imidazole, the human Pim-1 to which GST-Tag derived from pGEx-6P-1 was eluted with Equilibration Buffer-1 containing 150 mmol/L imidazole. […] The protease reaction was carried out by stirring overnight at 4° C., and the human Pim-1 in which the GST-Tag sequence was cleaved was eluted. The eluate was loaded onto a gel filtration column (Superdex-200 […] (GE Healthcare, model number 17-5175-01)) equilibrated with Equilibration Buffer-3 (50 mmol/L Tris-HCl (pH 7.5), 500 mmol/L NaCl, 0.05% Tween20, 0.5 mmol/L EDTA, 2 mmol/L DTT, 10% Glycerol), and eluted. The eluate was used as a human Pim-1 purified fraction.
The protein concentration of the human Pim-1 purified fraction was measured with Pierce 660 nm Protein Assay Reagent (Thermo Fisher Scientific, model number 22660). The purified fraction was rapidly frozen in liquid nitrogen, and then stored at −80° C. The His-Tag-added human Pim-1 was detected by Western blotting using a mouse anti-His monoclonal antibody (WAKO, model number 011-23091).
(2) Evaluation of Human Pim-1 Inhibitory Activity
The calculation of the Pim-1 inhibitory activity of the compound was performed using the following solution according to the protocol attached to ADP-Glo Kinase Assay (cat. V9102, Promega). The purified enzyme of human Pim-1 described above was used.
(i) Preparation of Solution
The kinase buffer solution (50 mmol/L HEPES (pH 7.5), 5 mmol/L MgCl2, 1 mmol/L DTT, 0.05% BSA) was prepared by dissolving HEPES (Jena Bioscience), MgCl2 (Sigma-Aldrich), DTT (Sigma-Aldrich) and BSA (Sigma-Aldrich) in purified water.
The ATP solution (288 μmol/L) was prepared by dissolving 100 mmol/L ATP (Promega) in the kinase buffer solution.
`O=C1NCCN(CCC2CC3(CC(CO)C3)C2)c2c1oc1ccc(C(F)(F)F)cc21` (racemic) [Example 143] gave a Ki of 0.947 nM. With `O=C1NCCN(CCC2CCC(CO)CC2)c2c1oc1ccc(C(F)(F)F)cc21` (stereo not drawn) [Example 97] the Ki was 0.107 nM. In the case of `O=C1NCCN(CCC2COCC(CO)O2)c2c1oc1ccc(C(F)(F)F)cc21` (racemic) [Example 133], the Ki is reported as 1.58 nM. With `O=C1NC2(CC2)CN(CC[C@H]2CO[C@@H](CF)CO2)c2c1oc1ccc(C(F)(F)F)cc21` [Example 157] the Ki was 0.234 nM. `CN1CCN(CC[C@H]2CC[C@](O)(CO)CC2)c2c(oc3ccc(C(F)(F)F)cc23)C1=O` [Example 2-03] gave a Ki of 0.414 nM. For `CN(C)C(=O)C1CCC(CCN2CCNC(=O)c3oc4ccc(C(F)(F)F)cc4c32)CC1` (stereo not drawn) [Example 101], the Ki was 0.775 nM. With `O=C1NCCN(CCC2CCC(O)(C(=O)O)CC2)c2c1oc1ccc(C(F)(F)F)cc21` (stereo not drawn) [Example 102] the Ki was 5.47 nM. `CS(=O)(=O)C[C@H]1CO[C@@H](CCN2CCNC(=O)c3oc4ccc(C(F)(F)F)cc4c32)CO1` (racemic) [Example 141] was tested, and the Ki was 10.3 nM. For `CC1(O)CCOC(C(F)(F)CN2CCNC(=O)c3oc4ccc(C(F)(F)F)cc4c32)C1` (stereo not drawn) [Example 66, 1-(2,2-difluoro-2-(4-hydroxy-4-methyltetrahydro-2H-pyran-2-yl)ethyl)-9-(trifluoromethyl)-1,2,3,4-tetrahydro-5H-benzofuro[3,2-e][1,4]diazepin-5-one], the Ki was 0.0283 nM. `CC(C)(O)C1CCOC(C(F)(F)CN2CCNC(=O)c3oc4ccc(C(F)(F)F)cc4c32)C1` (stereo not drawn) [Example 49] was tested, and the Ki was 0.0389 nM. `O=C1NCCN(CC[C@H]2CC[C@@H](O)CC2)c2c1oc1ccc(C(F)(F)F)cc21` [Example 83] showed a Ki of 0.762 nM. `O=C1NCCN(CC(F)(F)C2CC3(CCO2)OCCO3)c2c1oc1ccc(C(F)(F)F)cc21` (racemic) [Example 46] gave a Ki of 0.0715 nM. For `N#CCC1COCC(CCN2CCNC(=O)c3oc4ccc(C(F)(F)F)cc4c32)O1` (racemic) [Example 139], the Ki was 3.69 nM. For `O=C1NCCN(CC(F)(F)C2CC3(CCO2)COC3)c2c1oc1ccc(C(F)(F)F)cc21` (racemic) [Example 57], the Ki was 0.0448 nM. For `CC1(O)CCC(CCN2CC3(CC3)NC(=O)c3oc4ccc(C(F)(F)F)cc4c32)CC1` (single isomer, unassigned) [Example 128], the Ki was 0.031 nM. Work on `O=C1OC[C@]2(CC[C@H](CCN3CCNC(=O)c4oc5ccc(C(F)(F)F)cc5c43)CC2)O1` [Example 2-02] yielded a Ki of 0.43 nM. In the case of `CS(=O)(=O)C1CCC(CCN2CCNC(=O)c3oc4ccc(C(F)(F)F)cc4c32)CC1` (stereo not drawn) [Example 123], the Ki is reported as 0.784 nM. `CN1CCN(CC(F)(F)C2CC(O)CCO2)c2c(oc3ccc(C(F)(F)F)cc23)C1=O` (stereo not drawn) [Example 20] showed a Ki of 0.38 nM. In the case of `O=C(OC[C@@H]1CO[C@H](CCN2CCNC(=O)c3oc4ccc(C(F)(F)F)cc4c32)CO1)c1ccccc1` [Example 69], the Ki is reported as 18.5 nM. `O=C1CCC(F)(F)C(C(F)(F)CN2CCNC(=O)c3oc4ccc(C(F)(F)F)cc4c32)C1` (racemic) [Example 61] gave a Ki of 0.0391 nM. `O=C1NCCN(CC(F)(F)[C@@H]2CO[C@H](CO)CO2)c2c1oc1ccc(C(F)(F)F)cc21` [Example 78] gave a Ki of 0.227 nM. Compound `C[C@]1(O)CC[C@H](CCN2CCNC(=O)c3oc4ccc(C(F)(F)F)cc4c32)CC1` [Example 80] has a Ki of 0.205 nM. Compound `O=C1NCCN(CC[C@H]2CC[C@](O)(CCO)CC2)c2c1oc1ccc(C(F)(F)F)cc21` [Example 108] has a Ki of 0.298 nM. In the case of `COC[C@]1(OC)CC[C@@H](CCN2CCN(C)C(=O)c3oc4ccc(C(F)(F)F)cc4c32)CC1` [Example 2-05], the Ki is reported as 13.2 nM. For `O=C(OC[C@H]1CO[C@H](CCN2CCNC(=O)c3oc4ccc(C(F)(F)F)cc4c32)CO1)c1ccccc1` [Example 73], the Ki was 4.74 nM. For `CS(=O)(=O)C[C@@H]1CO[C@@H](CCN2CC3(CC3)NC(=O)c3oc4ccc(C(F)(F)F)cc4c32)CO1` [Example 159], the Ki was 0.164 nM. `O=C1NCCN(CC(F)(F)C2CC(CO)CCO2)c2c1oc1ccc(C(F)(F)F)cc21` (stereo not drawn) [Example 47] was tested, and the Ki was 0.0246 nM. With `O=C1NC2(CC2)CN(CC(F)(F)[C@H]2CC[C@H](O)CC2)c2c1oc1ccc(C(F)(F)F)cc21` [Example 149] the Ki was 0.0337 nM. Work on `COC1(CO)CCOC(C(F)(F)CN2CCNC(=O)c3oc4ccc(C(F)(F)F)cc4c32)C1` (stereo not drawn) [Example 34] yielded a Ki of 0.0206 nM. `COC(C1CC(O)(CO)C1)C1(CN2CCNC(=O)c3oc4ccc(C(F)(F)F)cc4c32)CC1` (racemic) [Example 23] was tested, and the Ki was 0.805 nM. For `CC1(O)CCC(C(F)(F)CN2CCNC(=O)c3oc4ccc(C(F)(F)F)cc4c32)CC1` (single isomer, unassigned) [Example 148], the Ki was 0.114 nM. With `O=C1NCCN(CC[C@H]2CC[C@](O)(CO)CC2)c2c1oc1ccc(C(F)(F)F)cc21` [Example 90, 1-(2-((1s,4s)-4-hydroxy-4-(hydroxymethyl)cyclohexyl)ethyl)-9-(trifluoromethyl)-1,2,3,4-tetrahydro-5H-benzofuro[3,2-e][1,4]diazepin-5-one] the Ki was 0.0091 nM. `O=C1NCCN(CCC2CCC(c3ncn[nH]3)CC2)c2c1oc1ccc(C(F)(F)F)cc21` (stereo not drawn) [Example 105] showed a Ki of 0.607 nM. `O=C1NCCN(CC[C@@H]2CO[C@@H](CO)CO2)c2c1oc1ccc(C(F)(F)F)cc21` [Example 74] gave a Ki of 0.738 nM. With `O=C1NCCN(CC[C@H]2CO[C@H](CO)CO2)c2c1oc1ccc(C(F)(F)F)cc21` [Example 41] the Ki was 0.933 nM. In the case of `C[C@H]1CO[C@H](CCN2CCNC(=O)c3oc4ccc(C(F)(F)F)cc4c32)CO1` [Example 63], the Ki is reported as 0.452 nM. `O=C1NCCN(CCC2CC(O)CCO2)c2c1oc1ccc(C(F)(F)F)cc21` (stereo not drawn) [Example 1] gave a Ki of 0.697 nM. With `COC(C1CC(O)C1)C1(CN2CCNC(=O)c3oc4ccc(C(F)(F)F)cc4c32)CC1` (stereo not drawn) [Example 17] the Ki was 0.234 nM. `CC1(O)CCOC(C(F)(F)CN2CCNC(=O)c3oc4ccc(C(F)(F)F)cc4c32)C1` (stereo not drawn) [Example 59, 1-(2,2-difluoro-2-(4-hydroxy-4-methyltetrahydro-2H-pyran-2-yl)ethyl)-9-(trifluoromethyl)-1,2,3,4-tetrahydro-5H-benzofuro[3,2-e][1,4]diazepin-5-one] gave a Ki of 0.107 nM. `O=C1NCCN(CC(F)(F)C2COCCO2)c2c1oc1ccc(C(F)(F)F)cc21` (single isomer, unassigned) [Example 70] was tested, and the Ki was 0.0734 nM. `CC1(C)OC[C@]2(CC[C@H](CCN3CCNC(=O)c4oc5ccc(C(F)(F)F)cc5c43)CC2)O1` [Example 2-01] gave a Ki of 1.6 nM. In the case of `CS(=O)(=O)CC1COCC(CCN2CCNC(=O)c3oc4ccc(C(F)(F)F)cc4c32)O1` (racemic) [Example 137], the Ki is reported as 5.36 nM. In the case of `O=C1NCCN(CCC2CC(O)(CO)CCO2)c2c1oc1ccc(C(F)(F)F)cc21` (stereo not drawn) [Example 4], the Ki is reported as 0.442 nM. `O=C1NCCN(CCC2CCCCO2)c2c1oc1ccc(C(F)(F)F)cc21` (stereo not drawn) [Example 40] showed a Ki of 0.969 nM. `O=C1NCCN(CC(F)(F)[C@H]2CO[C@@H](CO)CO2)c2c1oc1ccc(C(F)(F)F)cc21` [Example 96] gave a Ki of 0.0283 nM. `O=C1NCCN(CCC2CCC(F)(CO)CC2)c2c1oc1ccc(C(F)(F)F)cc21` (stereo not drawn) [Example 150] showed a Ki of 0.13 nM.

Same assay, conditions: hPim1 Ki (nM), Ki converted from IC50; purified human Pim-1, Pim2tide substrate, ADP-Glo
`O=C1NCCN(CCC2CCC(O)CC2)c2c1oc1ccc(C(F)(F)F)cc21` (stereo not drawn) [Example 60] showed a Ki of 0.273 nM. `CC1(O)CCOC(C(F)(F)CN2CCNC(=O)c3oc4ccc(C(F)(F)F)cc4c32)C1` (racemic) [Example 12, 1-(2,2-difluoro-2-(4-hydroxy-4-methyltetrahydro-2H-pyran-2-yl)ethyl)-9-(trifluoromethyl)-1,2,3,4-tetrahydro-5H-benzofuro[3,2-e][1,4]diazepin-5-one] showed a Ki of 0.0388 nM.
